Patent US7402559B2, “Composition and method of treatment for urogenital conditions” (MSH Pharma, Incorporated, priority 1999, dated 2008)
Bridge positions count the residues as written; N and C are the ends. Ends that are not written are not given here. I, II: the chains in the order shown.

How the values were obtained:
C. glabrata = experiment: Candida CFU, CKPV dimer versus KPV: C. glabrata; assay type: cell-based; settings: FIG. 19; same molarity (10^−4 M)
Experimental: (§1) C. albicans, C. glabrata. and C. krusei (clinical isolates) were obtained from the collection of the laboratory of Microbiology, Ospedale Maggiore di Milano. Six different isolates for each yeast strain were used. Candida Sp. cells were maintained on Sabouraud's agar slants and periodically transferred to Sabouraud's agar plates and incubated for 48 h at 28° C. To prepare stationary growth phase yeast, a colony was taken from the agar plates and transferred into 5 ml Sabouraud-dextrose broth and incubated for 48 h at 32° C. Cells were centrifuged at 1,000× g for 10 minutes and the pellet was washed twice with distilled water. Cells were counted and suspended in distilled water to obtain 10^7 yeast cells/ml. Viability, determined by the exclusion of 0.01% methylene blue, remained >98%.
(§2) Control tubes received 100 μl of distilled water. All the tests were run in triplicate. After 2 h incubation at 37° C., yeast suspension from each vial was diluted with distilled water to obtain approximately 100 organisms/ml. One milliliter aliquots from each tube were dispensed on blood agar plates and incubated for 48 h at 37° C. to count CFUs. Organism viability was estimated from the number of CFUs in each plate. Only experiments in which CFUs in control plates were between 80 and 120 with a variability in counts less than 10% were used to evaluate effects of the peptides. […]

C. albicans [1] = experiment: Candida CFU, CKPV dimer versus KPV: C. albicans; assay type: cell-based; settings: FIG. 17; same molarity (10^−4 M)
Experimental: as §1, §2

C. albicans [2] = experiment: C. albicans colony formation (CFU viability); assay type: cell-based, Candida albicans; settings: FIG. 3; 10^−12 to 10^−4 M; p<0.01 vs. control
Experimental: Clinical isolates of C. albicans were obtained from the collection of the Department of Microbiology, Ospedale Maggiore di Milano. Cultures of C. albicans were maintained on Sabouraud's agar slants and periodically transferred to Sabouraud's agar plates and incubated for 48 hours at 28° C. To prepare stationary growth-phase yeast, a colony was taken from the agar plate, transferred into 30 ml of Sabouraud-dextrose broth, and incubated for 72 hours at 32° C. Cells were centrifuged at 1000× g for ten minutes, and the pellet was washed twice with distilled water. Cells were counted and suspended in Hank's balanced salt solution (“HBSS”) to the desired concentration.
Cells were then washed in cold distilled water and diluted with HBSS to a concentration of 100 organisms/ml. One-milliliter aliquots were then dispensed on blood agar plates and incubated for 48 hours at 37° C. The organism's viability was estimated from the number of colonies formed.
[…] The effects of forskolin and ddAdo on the ability of C. albicans to form colonies were determined according to the procedures described in Example II.

S. aureus (ATCC 29213) = experiment: S. aureus colony formation (viability); assay type: cell-based, Staphylococcus aureus; settings: FIG. 1; significant at peptide concentrations of 10^−12 to 10^−4 M; 2 h at 37° C.
Experimental: Cultures of S. aureus (ATCC 29213) were obtained from the collection of the Department of Microbiology, Ospedale Maggiore di Milano. […] Cells were then washed in cold distilled water and diluted with HBSS to a concentration of 100 organisms/ml. One-milliliter aliquots were dispensed on blood agar plates and incubated for 24 hours at 37° C. Viability of the microorganisms was estimated from the colonies formed. In another set of experiments, 500 units of urokinase, a S. aureus growth enhancer, were also incubated with the bacteria (10^5/100 ml ) for four hours at 37° C. in a shaking water bath together with the peptides.

C. krusei = experiment: Candida CFU, CKPV dimer versus KPV: C. krusei; assay type: cell-based; settings: FIG. 18; same molarity (10^−4 M)
Experimental: as §1, §2

Substance: VPKC-s-s-CKPV (disulfide I:1-II:1; not fully specified (N-terminus, C-terminus)) [CKPV dimer]
- effectiveness relative to KPV monomer, C. glabrata (C. glabrata): more than twice as effective
- effectiveness relative to KPV monomer, C. albicans (C. albicans [1]): more than twice as effective
- ability of C albicans to form colonies (C. albicans [2]): greatly reduced
- S. aureus colony formation (S. aureus (ATCC 29213)): inhibited
- effectiveness relative to KPV monomer, C. krusei (C. krusei): more than twice as effective
